How the values were obtained:
[1] = target: T1, PARP5bcat (Homo sapiens, UniProt Q9H2K2); assay: ADP-ribosylation plate assay, PARP5bcat; assay type: biochemical; settings: in vitro plate assay; ± SEM, at least two biological replicates
T1 construct: PARP5bcat

[2] = target: T2, PARP8FL (Homo sapiens, UniProt Q8N3A8); assay: ADP-ribosylation plate assay, PARP8FL
T2 sequence (Q8N3A8 1-854): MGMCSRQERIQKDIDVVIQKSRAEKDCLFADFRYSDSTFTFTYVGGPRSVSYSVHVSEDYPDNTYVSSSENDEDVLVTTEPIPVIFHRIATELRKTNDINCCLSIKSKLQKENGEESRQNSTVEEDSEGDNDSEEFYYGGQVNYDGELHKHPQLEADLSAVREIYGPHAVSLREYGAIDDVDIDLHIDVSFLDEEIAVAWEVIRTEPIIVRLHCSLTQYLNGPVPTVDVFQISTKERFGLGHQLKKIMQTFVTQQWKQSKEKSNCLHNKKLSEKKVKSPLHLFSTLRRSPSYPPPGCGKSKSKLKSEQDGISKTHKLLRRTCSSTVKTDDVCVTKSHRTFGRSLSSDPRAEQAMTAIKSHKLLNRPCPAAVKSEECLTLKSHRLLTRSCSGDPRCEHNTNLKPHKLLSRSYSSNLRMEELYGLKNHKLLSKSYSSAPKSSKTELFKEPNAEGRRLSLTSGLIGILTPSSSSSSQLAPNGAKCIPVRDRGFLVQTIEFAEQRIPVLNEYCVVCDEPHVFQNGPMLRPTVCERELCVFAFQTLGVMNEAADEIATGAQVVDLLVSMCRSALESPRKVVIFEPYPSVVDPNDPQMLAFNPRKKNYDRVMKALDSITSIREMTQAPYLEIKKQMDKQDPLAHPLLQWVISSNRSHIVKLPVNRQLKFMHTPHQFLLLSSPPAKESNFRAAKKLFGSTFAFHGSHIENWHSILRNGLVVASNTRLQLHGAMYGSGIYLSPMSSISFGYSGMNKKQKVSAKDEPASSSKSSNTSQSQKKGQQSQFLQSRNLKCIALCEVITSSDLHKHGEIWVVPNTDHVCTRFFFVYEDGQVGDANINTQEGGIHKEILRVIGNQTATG

[3] = target: T3, PARP-7 (Homo sapiens, UniProt Q7Z3E1); assay: Endogenous PARP-7 protein levels in A549 cells, western blot; settings: A549 cells treated with Phthal01
T3 sequence (Q7Z3E1 1-657): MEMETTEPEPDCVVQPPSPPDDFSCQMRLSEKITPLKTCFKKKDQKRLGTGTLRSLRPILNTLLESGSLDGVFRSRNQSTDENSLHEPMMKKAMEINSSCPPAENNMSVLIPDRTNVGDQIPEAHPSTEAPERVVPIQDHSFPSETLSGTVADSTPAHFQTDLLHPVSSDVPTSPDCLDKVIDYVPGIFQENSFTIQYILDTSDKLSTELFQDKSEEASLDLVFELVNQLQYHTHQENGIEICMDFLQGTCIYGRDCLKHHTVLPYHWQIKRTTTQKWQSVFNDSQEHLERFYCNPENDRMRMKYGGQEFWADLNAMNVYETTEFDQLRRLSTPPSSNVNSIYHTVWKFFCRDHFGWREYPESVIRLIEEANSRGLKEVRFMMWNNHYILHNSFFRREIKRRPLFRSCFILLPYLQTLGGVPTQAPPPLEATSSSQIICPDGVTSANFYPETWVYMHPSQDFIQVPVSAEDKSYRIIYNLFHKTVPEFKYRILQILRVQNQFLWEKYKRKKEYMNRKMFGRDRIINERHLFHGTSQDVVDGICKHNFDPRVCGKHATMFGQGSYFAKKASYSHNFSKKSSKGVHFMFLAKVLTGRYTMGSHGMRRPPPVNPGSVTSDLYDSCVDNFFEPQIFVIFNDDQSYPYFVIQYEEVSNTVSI

[4] = target: T4, PARP-10 (Homo sapiens, UniProt Q53GL7); assay: Auto-MARylation of PARP-10 in GFP-PARP-10 expressing HEK 293 T cells, western blot with ADPr antibody
T4 sequence (Q53GL7 1-1025): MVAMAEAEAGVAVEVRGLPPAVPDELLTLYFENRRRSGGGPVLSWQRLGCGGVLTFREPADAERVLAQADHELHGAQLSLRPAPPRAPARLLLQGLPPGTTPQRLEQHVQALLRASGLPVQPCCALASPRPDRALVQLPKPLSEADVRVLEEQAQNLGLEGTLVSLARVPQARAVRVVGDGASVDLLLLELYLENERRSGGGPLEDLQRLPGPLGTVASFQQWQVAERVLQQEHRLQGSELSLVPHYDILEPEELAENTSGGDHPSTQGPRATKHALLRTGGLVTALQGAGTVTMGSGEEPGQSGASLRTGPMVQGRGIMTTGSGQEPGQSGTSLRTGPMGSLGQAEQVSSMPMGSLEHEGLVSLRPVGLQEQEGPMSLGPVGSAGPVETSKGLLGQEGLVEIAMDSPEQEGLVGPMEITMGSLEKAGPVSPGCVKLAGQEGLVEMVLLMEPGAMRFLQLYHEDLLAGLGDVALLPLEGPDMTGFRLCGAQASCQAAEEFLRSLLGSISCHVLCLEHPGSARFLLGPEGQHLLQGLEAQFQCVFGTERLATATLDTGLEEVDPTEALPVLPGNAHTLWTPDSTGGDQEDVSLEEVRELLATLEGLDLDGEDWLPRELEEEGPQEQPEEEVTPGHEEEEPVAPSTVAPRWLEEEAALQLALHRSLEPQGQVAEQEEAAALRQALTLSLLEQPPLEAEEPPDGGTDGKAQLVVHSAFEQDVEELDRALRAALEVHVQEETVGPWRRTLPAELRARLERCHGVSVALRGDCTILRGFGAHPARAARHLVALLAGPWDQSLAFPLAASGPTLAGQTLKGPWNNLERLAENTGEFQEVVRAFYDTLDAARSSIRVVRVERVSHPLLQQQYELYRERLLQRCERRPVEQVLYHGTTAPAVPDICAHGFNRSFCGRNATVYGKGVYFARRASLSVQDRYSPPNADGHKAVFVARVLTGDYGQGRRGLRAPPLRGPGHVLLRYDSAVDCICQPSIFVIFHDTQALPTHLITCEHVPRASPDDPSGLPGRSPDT

T1 sequence (Q9H2K2 959-1164): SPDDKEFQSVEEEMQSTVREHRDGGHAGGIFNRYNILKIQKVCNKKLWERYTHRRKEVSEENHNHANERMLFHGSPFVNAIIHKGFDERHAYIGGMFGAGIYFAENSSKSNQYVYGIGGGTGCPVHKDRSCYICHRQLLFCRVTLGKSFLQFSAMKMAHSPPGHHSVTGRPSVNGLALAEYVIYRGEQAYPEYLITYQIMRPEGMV

N#Cc1ccc(N2CCN(C(=O)c3cc(Cc4n[nH]c(=O)c5ccccc45)ccc3F)CC2)nc1 [Phthal01, 6-(4-(2-fluoro-5-((4-oxo-3,4-dihydrophthalazin-1-yl)methyl)benzoyl)piperazin-1-yl)nicotinonitrile]
IC50 [1]: 2520 ± 200 nM
IC50 [2]: 4.7 ± 1 µM
endogenous PARP-7 protein levels [3]: increase substantially
EC50 [4]: ~3 µM

From paper PMC7880690, “Chemical genetics and proteome-wide site mapping reveal cysteine MARylation by PARP-7 on immune-relevant protein targets” (eLife, 2021)
